Like-named read-outs stand apart in the source and are kept apart here.
Tested on: Huh-7 cells containing the self-replicating, subgenomic HCV replicon with a stable luciferase (LUC) reporter
Assay: HCV replicon assay (luciferase reporter, Bright-Glo)
Format: cell-based
Method: Huh-7 cells containing the self-replicating, subgenomic HCV replicon with a stable luciferase (LUC) reporter were cultured in Dulbecco's modified Eagle's medium (DMEM) containing 2 mM L-glutamine and supplemented with 10% heat-inactivated fetal bovine serum (FBS), 1% penicillin-streptomyocin, 1% nonessential amino acids, and 0.5 mg/mL G418.
Determination of 50% inhibitory concentration (EC50) of compounds in HCV replicon cells were performed by the following procedure. On the first day, 5,000 HCV replicon cells were plated per well in a 96-well plate. On the following day, test compounds were solubilized in 100% DMSO to 100× the desired final testing concentration. Each compound was then serially diluted (1:3) up to 9 different concentrations. Compounds in 100% DMSO are reduced to 10% DMSO by diluting 1:10 in cell culture media. The compounds were diluted to 10% DMSO with cell culture media, which were used to dose the HCV replicon cells in 96-well format. The final DMSO concentration was 1%. The HCV replicon cells were incubated at 37° C. for 72 hours. At 72 hours, cells were processed when the cells are still subconfluent. Compounds that reduce the LUC signal are determined by Bright-Glo Luciferase Assay (Promega, Madison, Wis.). % Inhibition was determined for each compound concentration in relation to the control cells (untreated HCV replicon) to calculate the EC50.
Compounds of Formula (I) are active in the replicon assay. The antiviral activity of exemplary compounds is shown in Table 5, where ‘A’ indicates an EC50<1 μM, ‘B’ indicates an EC50≧1 μM and <10 μM, and ‘C’ indicates an EC50≧10 μM and <100 μM.

Row | Compound | EC50 (Hepatitis C virus, Huh-7, 72 h) [µM] | also measured
1 | COc1nc(N)nc2c1ncn2[C@@H]1O[C@@H]2COP(=S)(OC)O[C@H]2[C@@]1(C)O (some centres unmarked) [Compound 1a, (Rp/Sp) 2′-C-methyl-6-O-methyl-guanosine-3′,5′-cyclic-O-methyl phosphorothioate] | < 1 | –
2 | COP1(=O)O[C@H]2[C@@H](O)[C@H](n3cnc4c(N)ncnc43)O[C@@H]2[C@H](C)O1 (some centres unmarked) [Compound 8a] | – | EC50 (Hepatitis C virus, HCV replicon cells (Huh-7), 72 hours incubation, LUC signal, read-out: EC50): 10 to 100 µM
3 | COP1(=S)OC[C@H]2O[C@@H](n3ccc(=O)[nH]c3=O)[C@](C)(O)[C@@H]2O1 (some centres unmarked) [Compound 10a, 1-(7-Hydroxy-2-methoxy-7-methyl-2-thioxo-tetrahydro-2l5-furo[3,2-d][1,3,2]dioxaphosphinin-6-yl)-1H-pyrimidine-2,4-dione] | 10 to 100 | –
4 | CC(C)OP1(=S)OC[C@H]2O[C@@H](n3ccc(=O)[nH]c3=O)[C@](C)(O)[C@@H]2O1 (some centres unmarked) [Compound 11a, 1-(7-Hydroxy-2-isopropoxy-7-methyl-2-thioxo-tetrahydro-2l5-furo[3,2-d][1,3,2]dioxaphosphinin-6-yl)-1H-pyrimidine-2,4-dione] | 1 to 10 | –
5 | COc1nc(N)nc2c1ncn2[C@@H]1O[C@@H]2COP(=O)(SCOC(=O)C(C)(C)C)O[C@H]2[C@@]1(C)O (some centres unmarked) [Compound 12a, 2′-C,O^6-Dimethylguanosine 3′,5′-cyclic O-pivaloyloxymethyl phosphorothioate] | – | EC50 (HCV replicon cells (Huh-7), 72 hours incubation, LUC signal, read-out: EC50): < 1 µM
